Reference: patent US9839708B2, “Method for treating used absorbent article” (Unicharm Corporation, priority 2012, dated 2017)

What was measured:
[1] = Residual chlorine concentration of recycled pulp (JIS K 0102 33.2); format: physicochemical; conditions: 5.00 g eluted into 100 ml, criterion Less than 1 ppm
Protocol: (§1) Eight commercially available disposable diapers (Moony M Size, Unicharm Corp.) that had adsorbed 200 ml of physiological saline were placed in a twin tub compact washing machine (Harebare AST-01, Alumis Co., Ltd.). 80 g of CaO (Wako Pure Chemical Industries, Ltd.) were placed in the washing tub followed by the addition of 6.5 L of acidic electrolyzed water (pH 3, generated with the ESS-ZERO Electrolyzed Water Sanitation System manufactured by Tech Corp.). After washing for 15 minutes, the liquid inside the washing tub was discharged followed by newly adding 6.5 L of acidic electrolyzed water (pH 3, formed with the ESS-ZERO Electrolyzed Water Sanitation System manufactured by Tech Corp.). After washing for 15 minutes, only the pulp that floated in the liquid in the washing tub was skimmed off followed by placing in a mesh pouch (measuring 25 cm on a side, N-No. 250HD, NBC Meshtec Inc.) and dehydrating for 5 minutes in the spin tub (dehydrator). The recycled pulp was rinsed for 15 minutes with running water (tap water) while still in the mesh pouch followed by again dehydrating for 5 minutes in the spin tub (dehydrator). The pulp was then dried for 24 hours with a hot air dryer at 105° C. Recycled pulp was obtained according to the aforementioned method.
5.00 g of pulp dried in the same manner as described above were eluted into 100 ml of physiological saline followed by measurement of the chlorine concentration thereof (JIS K 0102 33.2).
(§2) Eight commercially available disposable diapers (Moony M Size, Unicharm Corp.) that had adsorbed 200 ml of physiological saline were placed in a twin tub compact washing machine (Harebare AST-01, Alumis Co., Ltd.). 80 g of CaO (Wako Pure Chemical Industries, Ltd.) were placed in the washing tub followed by the addition of 6.5 L of alkaline electrolyzed water (pH 12, generated with the ESS-ZERO Electrolyzed Water Sanitation System manufactured by Tech Corp.). […]

[2] = Evaluation of pH of recycled pulp; format: physicochemical; conditions: 1.00 g dried pulp in 10 ml physiological saline; criterion pH 3.1-9.8
Protocol: as §1
1.00 g of the dried pulp was weighed out into a beaker followed by the addition of 10 ml of physiological saline. After gently stirring with a glass rod, the pulp was allowed to stand undisturbed for 10 minutes followed by measurement of the liquid inside the beaker with a pH meter (AS-212, As One Corp.).
as §2

Escherichia coli = assay: Evaluation of bactericidal function (MIC / minimum bactericidal concentration); format: cell-based; set-up: key: −: exhibited effects of bactericidal action; +: with the exception of the results of Comparative Examples 1 and 2; conditions: at the concentration used in the example; absence of growth 24 hours later
Protocol: (§3) Minimum inhibitory concentration (MIC) of the acidic electrolyzed water was measured based on the standard test method of the Japanese Society of Chemotherapy followed by confirming the absence of growth 24 hours later to evaluate the minimum bactericidal concentration and determine if bactericidal effects are present at the concentration used in the example. Minimum inhibitory concentrations (MIC) of the alkaline electrolyzed water and acidic electrolyzed water were respectively measured based on the standard test method of the Japanese Society of Chemotherapy followed by confirming the absence of growth 24 hours later to evaluate the minimum bactericidal concentration and determine if bactericidal effects are present at the concentration used in Example 2-2. Minimum inhibitory concentrations (MIC) of the acidic electrolyzed water and alkaline electrolyzed water were respectively measured based on the standard test method of the Japanese Society of Chemotherapy followed by confirming the absence of growth 24 hours later to evaluate the minimum bactericidal concentration and determine if bactericidal effects are present at the concentration used in Example 3-2. Minimum inhibitory concentration (MIC) of the tap water was measured based on the standard test method of the Japanese Society of Chemotherapy followed by confirming the absence of growth 24 hours later to evaluate the minimum bactericidal concentration and determine if bactericidal effects are present at the concentration used in the example. Minimum inhibitory concentrations (MIC) of the alkaline electrolyzed water was measured based on the standard test method of the Japanese Society of Chemotherapy followed by confirming the absence of growth 24 hours later to evaluate the minimum bactericidal concentration and determine if bactericidal effects are present at the concentration used in Comparative Example 2-2. Minimum inhibitory concentration (MIC) of the 250 ppm sodium hypochlorite was measured based on the standard test method of the Japanese Society of Chemotherapy followed by confirming the absence of growth 24 hours later to evaluate the minimum bactericidal concentration and determine if bactericidal effects are present at the concentration used in Comparative Example 3-2. Minimum inhibitory concentration (MIC) of the 500 ppm sodium hypochlorite was measured based on the standard test method of the Japanese Society of Chemotherapy followed by confirming the absence of growth 24 hours later to evaluate the minimum bactericidal concentration and determine if bactericidal effects are present at the concentration used in Comparative Example 4-2. Minimum inhibitory concentration (MIC) of the 1000 ppm sodium hypochlorite was measured based on the standard test method of the Japanese Society of Chemotherapy followed by confirming the absence of growth 24 hours later to evaluate the minimum bactericidal concentration and determine if bactericidal effects are present at the concentration used in Comparative Example 4-2.

Staphylococcus aureus = assay: as above; format: cell-based; set-up: key: −: exhibited effects of bactericidal action; +: with the exception of the results of Comparative Examples 1 and 2; conditions: at the concentration used in the example; absence of growth 24 hours later
Protocol: as §3

Compound | Residual Chlorine ppm [1] [ppm] | pH of Recycled Pulp [2] | Bactericidal Effect E. coli (Escherichia coli) | Bactericidal Effect S. aureus (Staphylococcus aureus)
OCl [compound 5, sodium hypochlorite] | 1 | 12.0 | − | −
[Na+].[O-]Cl [compound 4, sodium hypochlorite] | 1 | 12.2 | − | −
OCl [compound 3, sodium hypochlorite] | 1 | 12.3 | − | −
